Results published in US8450366B2, “Isobenzofuran analogs of sclerophytin A” (Board of Trustees of the University of Arkansas, priority 2009, dated 2013).
Values after ≈ are worked out from the molar mass of the structure shown. Values joined by “and” are separate entries in the source; they are usually repeats but may differ in a detail not shown here. Equal values may be shown once. Read-outs that look alike come from different tables or passages of the source.

What was measured:
[1] = test system: KB-3 human carcinoma cell line; test: MTT colorimetric assay of KB-3 cell viability; type: cell-based; details: for IC50: KB-3 cells, 96 h treatment, triplicate, read-out: IC50, inhibition of KB-3 cell survival assessed by MTT viability assay
Procedure: The human KB-3 carcinoma cell line was used to perform the MTT colorimetric assay of cell viability.(22-24) Cells were treated with increasing concentrations of compounds to assess their growth inhibitory properties. IC50 values (concentration of the drug required to reduce cell viability by 50%) ranged from 1 to >100 μM (Table 1).
Inhibition of cell proliferation was assessed by the MTT assay. This assay is based on the ability of a mitochondrial dehydrogenase enzyme from viable cells to cleave the tetrazolium rings of the pale yellow 3-(4,5-dimethylthiazol-2-yl)-2,5-diphenyltetrazolium bromide (MTT) and form a dark blue formazan crystal product which is largely impermeable to cell membranes, thus resulting in its accumulation within healthy cells.(22) Solubilization of the cells by the addition of solvent results in the liberation of the crystals which are solubilized. The level of the formazan product created is directly proportional to the number of living cells.(23,24)
All stock solutions of compounds were made at 10 mM in dimethyl sulfoxide (DMSO). DMSO and MTT were from Sigma Chemical Co. (St. Louis, Mo.). Cell culture reagents were obtained from Life Technologies (Carlsbad, Calif.). The KB-3 human carcinoma cell line was maintained in monolayer culture at 37° C. and 5% CO2 in Dulbecco's Modified Eagle's Medium, supplemented with 10% fetal bovine serum, 2 mM L-glutamine, 50 units/mL penicillin, and 50 μg/mL streptomycin.
KB-3 cells (2000/well) were plated in 96-well dishes, and after 24 h were treated with 0.1 nM-100 μM of the compound in question. […] After 96 h, cells were incubated with 50 μg MTT/well/0.2 mL for 4 h at 37° C., the media was removed, and the formazan crystals were dissolved in 0.15 mL of DMSO. Absorbance at 570 nm was measured with an ELx800™ Microplate Reader (Bio Tek Instruments, Inc., Winooski, Vt.). All treatments were performed in triplicate. Results are shown in FIGS. 1A-D as a percentage of control samples (mean±SD). IC50 is the concentration that reduced survival to 50% of the control (no drug).

60-cell line screening = test: NCI Developmental Therapeutics 60-cell line screening, single dose; type: cell-based; details: NCI 60-cell line screening
[2] = test system: PC-3 prostate cancer cell line; test: NCI 60-cell line single dose assay, PC-3; type: cell-based
[3] = test system: RPMI-8226 leukemia cell line; test: NCI 60-cell line single dose assay, RPMI-8226; type: cell-based
entire leukemia panel = test: NCI 60-cell line single dose assay, leukemia panel; type: cell-based
[4] = test system: RPMI-8226 leukemia cell line; test: NCI 5-dose testing, RPMI-8226; type: cell-based; details: 5-dose testing, read-out: LC50 (the source's name)
[5] = test system: NCI-H522 non-small cell lung cancer cell line; test: NCI 60-cell line single dose assay, NCI-H522; type: cell-based
[6] = test system: HOP-92 non-small cell lung cancer cell line; test: NCI 5-dose testing, HOP-92; type: cell-based; details: 5-dose testing, read-out: LC50 (the source's name)
[7] = reported in the literature; cited from earlier work
L1210 cell line = details: reported, cited from earlier work

Molecule	IC50 [1]	other results
C=C(C)[C@H]1CC=C(C)[C@@]2(O)[C@@H]1[C@H](c1ccccc1Br)O[C@@H]2C(=O)OC [Compound 5a.i]	5 µM	–
C=C(C)[C@H]1CC=C(C)[C@@]2(O)[C@@H]1[C@H](c1ccccc1Br)O[C@@H]2C(=O)OCC1CC1 [Compound 5a.ii]	50 µM	–
C=C(C)[C@H]1CC=C(C)[C@@]2(O)[C@@H]1[C@H](c1ccccc1Br)O[C@@H]2C(=O)OCC1CCCC1 [Compound 5a.iii]	> 100 µM	–
C=C(C)[C@H]1CC=C(C)[C@@]2(O)[C@@H]1[C@H](c1ccccc1Br)O[C@@H]2C(=O)OCC [Compound 5a]	~20 µM and 20 µM	–
C=C(C)[C@H]1CC=C(C)[C@@]2(O)[C@@H]1[C@H](c1cccc(Br)c1)O[C@@H]2C(=O)OCC [Compound 5b]	3 µM	–
C=C(C)[C@H]1CC=C(C)[C@@]2(O)[C@@H]1[C@H](c1cccc(Cl)c1Cl)O[C@@H]2C(=O)OCC [Compound 5c]	5 µM	–
C=C(C)[C@H]1CC=C(C)[C@@]2(O)[C@@H]1[C@H](c1ccc(Cl)cc1Cl)O[C@@H]2C(=O)OCC [Compound 5d]	3 µM	activity in single dose assays (60-cell line screening): no significant activity
C=C(C)[C@H]1CC=C(C)[C@@]2(O)[C@@H]1[C@H](c1cccc3ccccc13)O[C@@H]2C(=O)OC [Compound 5e]	10 µM	fold more active than the corresponding diene 10e ([1]; KB-3 IC50, entry 8 vs. entry 18): at least 10 fold
C=C(C)[C@H]1CC=C(C)[C@@]2(O)[C@@H]1[C@H](c1ccccn1)O[C@@H]2C(=O)OC [Compound 5f]	–	IC50 ([1]; Homo sapiens, KB3): 100 µM
C=C(C)[C@H]1CC=C(C)[C@@]2(O)[C@@H]1[C@H](c1cccc[n+]1C)O[C@@H]2C(=O)OC [Compound 5i]	–	IC50 ([1]; Homo sapiens, KB3): > 100 µM
C=C(C)[C@H]1CC(=O)C(C)=C2[C@@H](C(=O)OCC)O[C@@H](c3ccccc3Br)[C@@H]21 [Compound 6a]	~70 µM and 70 µM	–
C=C(C)[C@H]1CC(=O)C(C)=C2[C@@H](C(=O)OCC)O[C@@H](c3cccc(Br)c3)[C@@H]21 [Compound 6b]	30 µM	–
C=C(C)[C@H]1CC(=O)C(C)=C2[C@@H](C(=O)OCC)O[C@@H](c3cccc(Cl)c3Cl)[C@@H]21 [Compound 6c]	5 µM	–
C=C(C)[C@H]1CC(=O)C(C)=C2[C@@H](C(=O)OCC)O[C@@H](c3ccc(Cl)cc3Cl)[C@@H]21 [Compound 6d]	3 µM	differential activity, single dose [2]: significant differential activity; differential activity, single dose [3]: significant differential activity
C=C(C)[C@H]1CC=C(C)[C@@]2(O)[C@@H]1[C@H](c1ccccc1Br)O[C@@H]2C(=O)O [Compound 9]	> 100 µM	–
C=C(C)C1CC=C(C)C2=COC(c3ccccc3Br)C21 (centres unmarked) [Compound 10a]	4 µM	–
C=C(C)C1CC=C(C)C2=COC(c3cccc4ccccc34)C21 (centres unmarked) [Compound 10e]	> 100 µM	–
C=C(C)C1CC=C(C)C2=COC(c3ccco3)C21 (centres unmarked) [Compound 10g]	2 µM	–
C=C(C)C1CC=C(C)C2=COC(c3ccccc3F)C21 (centres unmarked) [Compound 10h]	1 µM	differential activity, single dose (entire leukemia panel): significant differential activity; CC50 [4]: 9.36 µM; differential activity, single dose [5]: significant differential activity; CC50 [6]: 26.8 µM
CO[C@]12C=C[C@](C)(O1)[C@@H](OC(=O)/C=C/c1cn(C)cn1)C[C@H]1C(C)=CC[C@H](C(C)C)[C@H]1/C=C\2CO[C@@H]1OC[C@@H](O)[C@@H](O)[C@@H]1OC(C)=O [Eleutherobin]	–	anti-mitotic activity [7]: taxol-like anti-mitotic activity
C=C1CC[C@H](C(C)C)[C@@H]2[C@H]1[C@H]1C[C@](C)(O)[C@@H](O)CC[C@@](C)(O)[C@@H]2O1 [Sclerophytin A]	–	IC50 (L1210 cell line; value in brackets, read-out: IC50, growth inhibitory activity against L1210): 0.003 µM; IC50, growth inhibitory activity against L1210 (L1210 cell line): 1.0 ng/mL (≈ 2.95 nM)
COC(=O)/C1=C/[C@@H]2[C@@H](C(C)C)CC=C(C)[C@@H]2C[C@H](OC(=O)/C=C/c2cn(C)cn2)[C@]2(C)C=C[C@@]1(O)O2 [sarcodictyins A, sarcodictyin A]	–	anti-mitotic activity [7]: taxol-like anti-mitotic activity
sarcodictyin B [sarcodictyins B]	–	anti-mitotic activity [7]: taxol-like anti-mitotic activity
